Laboratory results taken from ChEMBL document CHEMBL5729557, “5-membered heteroaryl carboxamide compounds for treatment of HBV” (2023).

Test: Assay Measuring Activity of Test Compounds on Viral Production from HepAD38 Cells: HepAD38 cells grown in a T-150 flask (Corning, cat #: 430825) with Growth Medium (DMEM/F12 (1:1) (Hyclone, cat #: SH30023.02), 1× Pen/Strep (Invitrogen, cat #: 15140-122), 10% FBS (Tissue Culture Biologics, cat #: 101), 250 μg/mL G418 (Alfa Aesar, cat #: J62671), 1 μg/mL Tetracycline (Teknova, cat #: T3320)) were detached with 0.25% trypsin-EDTA to (Invitrogen, cat #: 25200-056). Tetracycline-free treatment medium (15 mL DMEM/F12 (1:1) 1× Pen/step, with 2% FBS, Tet-system approved (Clontech, cat #: 631106) were then added to mix, transferred into a 50 ml conical tube (Falcon, cat #: 21008-918,) and spun at 1300 rpm for 5 min. Pelleted cells were then re-suspended/washed with 50 mL of 1×DPBS (Invitrogen, cat #: 14190-136) 2 times and 50 mL treatment medium twice. HepAD38 cells were then re-suspended with 10 mL of treatment medium, syringed and counted. Wells of 96-well clear bottom TC plate (Corning, cat #: 3904,) were seeded at 50,000 cells/well in 180 μL of treatment medium, and 20 μL of either 10% DMSO (Sigma, cat #: D4540) as controls or a 10× solution of test compounds in 10% DMSO in treatment media was added for a final compound concentration starting at 10 μM, and plates were incubated in 5% CO2 incubator at 37° C. for 5 days.Subsequently viral load production was assayed by quantitative PCR (qPCR) of the HBV core sequence. PCR reaction mixture containing forward primers HBV-f 5′-CTGTGCCTTGGGTGGCTTT-3′ (IDT DNA), Reverse primers HBV-r 5′-[…]-3′ (IDT DNA), Fluorescent TaqMan™ Probes HBV-probe 5′-FAM/AGCTCCAAA/ZEN/[…]/3IABkFQ-3′ (IDT DNA), 10 μL/well of PerfeCTa® qPCR ToughMix® (Quanta Biosciences, Cat #: 95114-05K), and 6 μL/well of DEPC water (Alfa Aesar, cat #: J62087) was prepared. […] of supernatant was added to 16 μL of the reaction mixture in a qPCR plate (Applied Biosytems, Cat #: 4309849), sealed with a film (Applied Biosystems, Cat #: 4311971), centrifuged for a few seconds, and subsequently run on an Applied Biosystems VIIA7. The PCR mixture was incubated at 45° C. for 5 min, then 95° C. for 10 min, followed by 40 cycles of 10 seconds at 95° C. and 20 seconds at 60° C. Viral load was quantified against known HBV DNA standards by using ViiA™ 7 Software. Viral load in the supernatant from wells with treated cells were compared against viral load in supernatant from DMSO control wells (>3 per plate). Cell viability assay was performed with CellTiter-Glo Luminescent Cell Viability Assay (Promega, cat #: G7573) with modification. Mixed appropriate amount of CellTiter-Glo (CTG) 1×DPBS in a 1:1 ratio, added 100 uL of the mixture to each well followed completely removal of all supernatant in each well without touching cell surface. Incubated the plate at room temperature for 10 min on an orbital shaker, and then read the plate with a plate reader (TECAN M1000 or Envision).
Conditions: not given

SMILES	EC50
COc1ccc([C@@H]2CC[C@H](c3nn(C)c(N)c3C(=O)Nc3ccc(F)c(Cl)c3)C2)cc1	< 100 nM and in the range around 300 nM
COC(=O)CC1(O)CC2CC(c3nn(C)c(N)c3C(=O)Nc3ccc(F)c(Cl)c3)CC2C1 (configuration not stated)	< 100 nM

Same assay, conditions: HePAD38

SMILES	EC50
Cn1nc([C@@H]2CC3CC(O)(CN4CCCCC4)C[C@@H]3C2)c(C(=O)Nc2ccc(F)c(Cl)c2)c1N (some centres not stated)	in the range around 300 nM
COc1cc(-c2cn(C)cn2)ccc1[C@H]1CC[C@@H](c2nn(C)c(N)c2C(=O)Nc2ccc(F)c(Cl)c2)C1	in the range around 300 nM
Cn1nc([C@@H]2CC[C@@H](c3ccccc3)C2)c(C(=O)Nc2ccc(F)c(Cl)c2)c1N	< 100 nM
Cn1nc([C@@H]2CC3CC(O)(CS(=O)(=O)CCCN4CCCCC4)C[C@H]3C2)c(C(=O)Nc2ccc(F)c(Cl)c2)c1N (some centres not stated)	in the range around 300 nM
CNC(=O)N1CC2CC(c3nn(C)c(N)c3C(=O)Nc3ccc(F)c(Cl)c3)CC2C1 (configuration not stated)	< 100 nM
Cn1nc([C@@H]2CC3CC(O)(CS(=O)(=O)C(C)(C)C)C[C@@H]3C2)c(C(=O)Nc2ccc(F)c(Cl)c2)c1N (some centres not stated)	< 100 nM
Cn1nc([C@@H]2CC3CC(O)(CSCC(F)(F)F)C[C@H]3C2)c(C(=O)Nc2ccc(F)c(Cl)c2)c1N (some centres not stated)	< 100 nM
COc1cc(-c2nccs2)ccc1C1CCC(c2nn(C)c(N)c2C(=O)Nc2ccc(F)c(Cl)c2)C1 (configuration not stated)	in the range around 5250 nM
Cn1nc(C2CCC(c3ccccc3)C2)c(C(=O)Nc2cc(F)c(F)c(Br)c2)c1N (configuration not stated)	in the range around 300 nM
CC(=O)N1CC2CC(c3nn(C)c(N)c3C(=O)Nc3ccc(F)c(Cl)c3)CC2C1 (configuration not stated)	< 100 nM
Cn1nc(C2CCN(c3ccccc3)C2)c(C(=O)Nc2ccc(F)c(Cl)c2)c1N (configuration not stated)	in the range around 300 nM
Cn1nc(C2CC3CC([S+](C)[O-])CC3C2)c(C(=O)Nc2ccc(F)c(Cl)c2)c1N (configuration not stated)	< 100 nM
Cn1nc(C2CC3CC(O)(C(=O)NC4CC4)CC3C2)c(C(=O)Nc2ccc(F)c(Cl)c2)c1N (configuration not stated)	in the range around 300 nM
Cn1nc([C@H]2C[C@@H](c3ccccc3)C2)c(C(=O)Nc2ccc(F)c(Cl)c2)c1N	< 100 nM
COc1cc(-c2cn(C)cn2)ccc1[C@@H]1CC[C@@H](c2nn(C)c(N)c2C(=O)Nc2ccc(F)c(Cl)c2)C1	< 100 nM
Cn1nc([C@H]2CC[C@H](c3ccccc3)C2)c(C(=O)Nc2ccc(F)c(Cl)c2)c1N	in the range around 5250 nM
Cn1nc(C2CCC(c3csc(C(F)(F)F)n3)C2)c(C(=O)Nc2ccc(F)c(Cl)c2)c1N (configuration not stated)	in the range around 5250 nM
Cn1nc([C@@H]2CC3CC(O)(CSCCN4CCOCC4)C[C@H]3C2)c(C(=O)Nc2ccc(F)c(Cl)c2)c1N (some centres not stated)	< 100 nM
Cn1nc([C@@H]2CC3CC(O)(CSCCO)C[C@H]3C2)c(C(=O)Nc2ccc(F)c(Cl)c2)c1N (some centres not stated)	< 100 nM
CS(=O)(=O)CC1(O)CC2CC(c3n[nH]c(N)c3C(=O)Nc3ccc(F)c(Cl)c3)CC2C1 (configuration not stated)	< 100 nM
CN(C)C(=O)CC1CC2CC(c3nn(C)c(N)c3C(=O)Nc3ccc(F)c(Cl)c3)CC2C1 (configuration not stated)	< 100 nM
Cn1nc(C2CCC(c3cccnc3)C2)c(C(=O)Nc2ccc(F)c(Cl)c2)c1N (configuration not stated)	< 100 nM
Cn1nc([C@@H]2CC3CC(O)(CSCCN4CCOCC4)C[C@@H]3C2)c(C(=O)Nc2ccc(F)c(Cl)c2)c1N (some centres not stated)	< 100 nM
Cn1nc(C2CC3CC(N4CCCS4(=O)=O)CC3C2)c(C(=O)Nc2ccc(F)c(Cl)c2)c1N (configuration not stated)	< 100 nM

SMILES	EC50
Cn1cc(C2CC3CC(c4nn(C)c(N)c4C(=O)Nc4ccc(F)c(Cl)c4)CC3C2)cn1 (configuration not stated)	< 100 nM
Cn1nc([C@H]2CC3COC(=O)C[C@H]3C2)c(C(=O)Nc2ccc(F)c(Cl)c2)c1N (some centres not stated)	< 100 nM
COc1cc(C(=O)NCCS(C)(=O)=O)ccc1[C@H]1CC[C@@H](c2nn(C)c(N)c2C(=O)Nc2ccc(F)c(Cl)c2)C1	in the range around 300 nM
Cn1nc(C2CC3CN(C(=O)N4CCCC4)CC3C2)c(C(=O)Nc2ccc(F)c(Cl)c2)c1N (configuration not stated)	< 100 nM
CSC1CC2CC(c3nn(C)c(N)c3C(=O)Nc3ccc(F)c(Cl)c3)CC2C1 (configuration not stated)	< 100 nM
Cn1cc(-c2ccc([C@H]3CC[C@H](c4nn(C)c(N)c4C(=O)Nc4ccc(F)c(Cl)c4)C3)cc2)cn1	< 100 nM
Cn1cc(-c2ccc([C@H]3CC[C@@H](c4nn(C)c(N)c4C(=O)Nc4ccc(F)c(Cl)c4)C3)cc2)cn1	< 100 nM
Cn1nc([C@@H]2CC[C@H](c3ccccc3)C2)c(C(=O)Nc2ccc(F)c(Cl)c2)c1N	< 100 nM
CC(C)OCC1(O)CC2C[C@@H](c3nn(C)c(N)c3C(=O)Nc3ccc(F)c(Cl)c3)C[C@H]2C1 (some centres not stated)	in the range around 5250 nM
Cn1nc([C@@H]2CC3CC(O)(CC(=O)O)C[C@@H]3C2)c(C(=O)Nc2ccc(F)c(Cl)c2)c1N (some centres not stated)	< 100 nM
Cn1nc([C@@H]2CC3COC(=O)C[C@H]3C2)c(C(=O)Nc2ccc(F)c(Cl)c2)c1N (some centres not stated)	in the range around 300 nM
COc1cc(-c2nccn2C)ccc1[C@H]1CC[C@@H](c2nn(C)c(N)c2C(=O)Nc2ccc(F)c(Cl)c2)C1	in the range around 300 nM
Cn1nc([C@@H]2CC3CC(O)(CN4CCCCC4)C[C@H]3C2)c(C(=O)Nc2ccc(F)c(Cl)c2)c1N (some centres not stated)	in the range around 300 nM
Cn1nc(C2CC3CC(NS(C)(=O)=O)CC3C2)c(C(=O)Nc2ccc(F)c(Cl)c2)c1N (configuration not stated)	< 100 nM
CN(C)C(=O)CC1(O)CC2CC(c3nn(C)c(N)c3C(=O)Nc3ccc(F)c(Cl)c3)CC2C1 (configuration not stated)	< 100 nM
Cn1nc([C@@H]2CC3CC(O)(CSCCO)C[C@@H]3C2)c(C(=O)Nc2ccc(F)c(Cl)c2)c1N (some centres not stated)	< 100 nM
Cn1nc([C@@H]2CC3CC(=NO)C[C@@H]3C2)c(C(=O)Nc2ccc(F)c(Cl)c2)c1N (some centres not stated)	< 100 nM
Cn1nc(C2CCC(c3ccc(OC(F)(F)F)cc3)C2)c(C(=O)Nc2ccc(F)c(Cl)c2)c1N (configuration not stated)	in the range around 5250 nM
COc1cccc([C@@H]2CC[C@H](c3nn(C)c(N)c3C(=O)Nc3ccc(F)c(Cl)c3)C2)c1	< 100 nM
CC(C)Oc1ccc(C2CCC(c3nn(C)c(N)c3C(=O)Nc3ccc(F)c(Cl)c3)C2)cc1 (configuration not stated)	< 100 nM
Cn1nc(C2CC3CC4(CNC(=O)C4)CC3C2)c(C(=O)Nc2ccc(F)c(Cl)c2)c1N (configuration not stated)	< 100 nM
COc1cccc(C2CCC(c3nn(C)c(N)c3C(=O)Nc3ccc(F)c(Cl)c3)C2)c1 (configuration not stated)	< 100 nM
CC(=O)NC1CC2CC(c3nn(C)c(N)c3C(=O)Nc3ccc(F)c(Cl)c3)CC2C1 (configuration not stated)	< 100 nM
Cn1nc([C@@H]2CC3CC(O)(CS(=O)(=O)C4CC4)C[C@@H]3C2)c(C(=O)Nc2ccc(F)c(Cl)c2)c1N (some centres not stated)	< 100 nM

SMILES	EC50
Cn1cc(C(=O)Nc2ccc(F)c(Cl)c2)c(C2CC3CC(=O)CC3C2)n1 (configuration not stated)	in the range around 5250 nM
Cn1nc(C2CC3CC(N)CC3C2)c(C(=O)Nc2ccc(F)c(Cl)c2)c1N (configuration not stated)	in the range around 300 nM
Cn1nc([C@@H]2CC3CC(O)(CSC(C)(C)C)C[C@@H]3C2)c(C(=O)Nc2ccc(F)c(Cl)c2)c1N (some centres not stated)	< 100 nM
Cn1nc(C2CC3CC(NS(=O)(=O)C(F)(F)F)CC3C2)c(C(=O)Nc2ccc(F)c(Cl)c2)c1N (configuration not stated)	< 100 nM
CCC1OC[C@]2(CC3C[C@H](c4nn(C)c(N)c4C(=O)Nc4ccc(F)c(Cl)c4)C[C@@H]3C2)O1 (some centres not stated)	< 100 nM
Cn1nc(C2CC3CC(C)(O)CC3C2)c(C(=O)Nc2ccc(F)c(Cl)c2)c1N (configuration not stated)	< 100 nM
Cn1nc(C2CC3CNC(=O)CC3C2)c(C(=O)Nc2ccc(F)c(Cl)c2)c1N (configuration not stated)	< 100 nM
Cn1nc(C2CC3CC(N4CCNC(=O)C4)CC3C2)c(C(=O)Nc2ccc(F)c(C#N)c2)c1N (configuration not stated)	< 100 nM
Cn1nc(C2CC3CC(NCCO)CC3C2)c(C(=O)Nc2ccc(F)c(Cl)c2)c1N (configuration not stated)	in the range around 300 nM
Cn1nc(C2CC3CC(S(C)(=O)=O)CC3C2)c(C(=O)Nc2ccc(F)c(Cl)c2)c1N (configuration not stated)	< 100 nM
Cn1nc(C2CC3CC(N4CCCC4)CC3C2)c(C(=O)Nc2ccc(F)c(Cl)c2)c1N (configuration not stated)	< 100 nM
Cn1nc(C2CCC(c3ccccc3)C2)c(C(=O)Nc2ccc(F)c(C#N)c2)c1N (configuration not stated)	< 100 nM
CN(C1CC2CC(c3nn(C)c(N)c3C(=O)Nc3ccc(F)c(Cl)c3)CC2C1)S(C)(=O)=O (configuration not stated)	< 100 nM
COC(=O)CC1(O)CC2CC(c3nn(C)c(N)c3C(=O)Nc3ccc(F)c(Cl)c3)CC2C1 (configuration not stated)	< 100 nM
CC(C)S(=O)(=O)N1CC2CC(c3nn(C)c(N)c3C(=O)Nc3ccc(F)c(Cl)c3)CC2C1 (configuration not stated)	< 100 nM
Cn1nc([C@@H]2CC3CNC(=O)C[C@H]3C2)c(C(=O)Nc2ccc(F)c(Cl)c2)c1N (some centres not stated)	< 100 nM
Cn1nc([C@@H]2CC3CC(O)(CS(=O)(=O)C4CC4)C[C@H]3C2)c(C(=O)Nc2ccc(F)c(Cl)c2)c1N (some centres not stated)	< 100 nM
COc1cc(-c2nccn2C)ccc1[C@@H]1CC[C@@H](c2nn(C)c(N)c2C(=O)Nc2ccc(F)c(Cl)c2)C1	< 100 nM
Cn1cc(C(=O)Nc2ccc(F)c(Cl)c2)c(C2CC3CC(O)(CS(C)(=O)=O)CC3C2)n1 (configuration not stated)	in the range around 5250 nM
CC(N1CC2CC(c3nn(C)c(N)c3C(=O)Nc3ccc(F)c(Cl)c3)CC2C1)C(F)(F)F (configuration not stated)	< 100 nM
COC(=O)N1CC2CC(c3nn(C)c(N)c3C(=O)Nc3ccc(F)c(Cl)c3)CC2C1 (configuration not stated)	< 100 nM
Cn1nc([C@@H]2CC3CC(O)(CS(C)(=O)=O)C[C@@H]3C2)c(C(=O)Nc2ccc(F)c(Cl)c2)c1N (some centres not stated)	< 100 nM
